Source: the CheMixHub viscosity set

Assay: xn = mol fraction of the nth substance listed

COCCOC + O
Details | viscosity [mPa·s]
298 K, 101 kPa, x2 = 0.222 | 0.5134
298 K, 101 kPa, x2 = 0.353 | 0.6057
298 K, 101 kPa, x2 = 0.3777 | 0.6324
298 K, 101 kPa, x2 = 0.4685 | 0.7626
298 K, 101 kPa, x2 = 0.5569 | 0.943
298 K, 101 kPa, x2 = 0.711 | 1.481
298 K, 101.3 kPa, x1 = 0.019 | 1.166
298 K, 101.3 kPa, x1 = 0.0608 | 1.748
298 K, 101.3 kPa, x1 = 0.1011 | 2.092
298 K, 101.3 kPa, x1 = 0.1521 | 2.104
298 K, 101.3 kPa, x1 = 0.1999 | 1.935
298 K, 101.3 kPa, x1 = 0.2992 | 1.432
298 K, 101.3 kPa, x1 = 0.4048 | 1.074
298 K, 101.3 kPa, x1 = 0.597 | 0.684
298 K, 101.3 kPa, x1 = 0.801 | 0.506
298.15 K, 101.33 kPa, x1 = 0.007 | 1.018
298.15 K, 101.33 kPa, x1 = 0.0184 | 1.189
298.15 K, 101.33 kPa, x1 = 0.0306 | 1.376
298.15 K, 101.33 kPa, x1 = 0.0542 | 1.712
298.15 K, 101.33 kPa, x1 = 0.0775 | 1.968
298.15 K, 101.33 kPa, x1 = 0.1063 | 2.146
298.15 K, 101.33 kPa, x1 = 0.1301 | 2.252
298.15 K, 101.33 kPa, x1 = 0.1654 | 2.164
298.15 K, 101.33 kPa, x1 = 0.2002 | 2.001
298.15 K, 101.33 kPa, x1 = 0.2402 | 1.782
298.15 K, 101.33 kPa, x1 = 0.2886 | 1.55
298.15 K, 101.33 kPa, x1 = 0.3482 | 1.256
298.15 K, 101.33 kPa, x1 = 0.3836 | 1.128
298.15 K, 101.33 kPa, x1 = 0.4226 | 1.005
298.15 K, 101.33 kPa, x1 = 0.4689 | 0.886
298.15 K, 101.33 kPa, x1 = 0.5203 | 0.78
298.15 K, 101.33 kPa, x1 = 0.5617 | 0.707
298.15 K, 101.33 kPa, x1 = 0.613 | 0.638
298.15 K, 101.33 kPa, x1 = 0.6418 | 0.605
298.15 K, 101.33 kPa, x1 = 0.6575 | 0.586
298.15 K, 101.33 kPa, x1 = 0.7264 | 0.536
298.15 K, 101.33 kPa, x1 = 0.8227 | 0.491
298.15 K, 101.33 kPa, x1 = 0.8646 | 0.471
298.15 K, 101.33 kPa, x1 = 0.9633 | 0.433
303.15 K, 101 kPa, x1 = 0.0471 | 1.344
303.15 K, 101 kPa, x1 = 0.0951 | 1.725
303.15 K, 101 kPa, x1 = 0.1421 | 1.837
303.15 K, 101 kPa, x1 = 0.1877 | 1.726
303.15 K, 101 kPa, x1 = 0.2322 | 1.562
303.15 K, 101 kPa, x1 = 0.277 | 1.373
303.15 K, 101 kPa, x1 = 0.3598 | 1.093
303.15 K, 101 kPa, x1 = 0.4455 | 0.8759
303.15 K, 101 kPa, x1 = 0.5389 | 0.7129
303.15 K, 101 kPa, x1 = 0.6952 | 0.5462
303.15 K, 101 kPa, x1 = 0.803 | 0.4759
303.15 K, 101 kPa, x1 = 0.9001 | 0.4317
308.15 K, 101 kPa, x1 = 0.0471 | 1.174
308.15 K, 101 kPa, x1 = 0.0951 | 1.487
308.15 K, 101 kPa, x1 = 0.1421 | 1.583
308.15 K, 101 kPa, x1 = 0.1877 | 1.493
308.15 K, 101 kPa, x1 = 0.2322 | 1.375
308.15 K, 101 kPa, x1 = 0.277 | 1.214
308.15 K, 101 kPa, x1 = 0.3598 | 0.98
308.15 K, 101 kPa, x1 = 0.4455 | 0.7944
308.15 K, 101 kPa, x1 = 0.5389 | 0.6553
308.15 K, 101 kPa, x1 = 0.6952 | 0.5103
308.15 K, 101 kPa, x1 = 0.803 | 0.448
308.15 K, 101 kPa, x1 = 0.9001 | 0.4079
313.15 K, 101 kPa, x1 = 0.0471 | 1.035
313.15 K, 101 kPa, x1 = 0.0951 | 1.302
313.15 K, 101 kPa, x1 = 0.1421 | 1.377
313.15 K, 101 kPa, x1 = 0.1877 | 1.308
313.15 K, 101 kPa, x1 = 0.2322 | 1.211
313.15 K, 101 kPa, x1 = 0.277 | 1.081
313.15 K, 101 kPa, x1 = 0.3598 | 0.886
313.15 K, 101 kPa, x1 = 0.4455 | 0.7267
313.15 K, 101 kPa, x1 = 0.5389 | 0.6061
313.15 K, 101 kPa, x1 = 0.6952 | 0.4784
313.15 K, 101 kPa, x1 = 0.803 | 0.4217
313.15 K, 101 kPa, x1 = 0.9001 | 0.3865
318.15 K, 101 kPa, x1 = 0.0471 | 0.9228
318.15 K, 101 kPa, x1 = 0.0951 | 1.143
318.15 K, 101 kPa, x1 = 0.1421 | 1.208
318.15 K, 101 kPa, x1 = 0.1877 | 1.157
318.15 K, 101 kPa, x1 = 0.2322 | 1.07
318.15 K, 101 kPa, x1 = 0.277 | 0.9692
318.15 K, 101 kPa, x1 = 0.3598 | 0.8048
318.15 K, 101 kPa, x1 = 0.4455 | 0.6672
318.15 K, 101 kPa, x1 = 0.5389 | 0.5616
318.15 K, 101 kPa, x1 = 0.6952 | 0.4497
318.15 K, 101 kPa, x1 = 0.803 | 0.3986
318.15 K, 101 kPa, x1 = 0.9001 | 0.367
323.15 K, 101 kPa, x1 = 0.0471 | 0.8291
323.15 K, 101 kPa, x1 = 0.0951 | 1.013
323.15 K, 101 kPa, x1 = 0.1421 | 1.07
323.15 K, 101 kPa, x1 = 0.1877 | 1.034
323.15 K, 101 kPa, x1 = 0.2322 | 0.9565
323.15 K, 101 kPa, x1 = 0.277 | 0.8719
323.15 K, 101 kPa, x1 = 0.3598 | 0.7336
323.15 K, 101 kPa, x1 = 0.4455 | 0.6155
323.15 K, 101 kPa, x1 = 0.5389 | 0.5232
323.15 K, 101 kPa, x1 = 0.6952 | 0.4226
323.15 K, 101 kPa, x1 = 0.803 | 0.3769
323.15 K, 101 kPa, x1 = 0.9001 | 0.3479
